Data: patent EP0379351A1, “1,4-Dihydropyridine derivatives” (SYNPHAR LABORATORIES INC., priority 1989, dated 1990)
Like-named read-outs stand apart in the source and are kept apart here.

Assays:
[1] = molecular target: guinea pig ileal longitudinal smooth muscle; experiment: Calcium channel antagonist testing: inhibition of carbachol-induced, muscarinic receptor-mediated Ca2+-dependent contraction of smooth muscle; assay type: cell-based; details: for relative potency compared with Nifedipine: calcium antagonist in smooth muscle, Nifedipine = 1
Excerpt: The compounds of this invention of formulae I and II are suitably prepared, applying modified Hantzsch pyridine synthesis, by reacting the appropriately substituted heterocyclic alkyl acetoacetate or substituted heterocyclic mercapto alkyl acetoacetate with a substituted benzaldehyde derivative and methyl-β-aminocrotonate in isopropanol. The compounds of formula III are suitably prepared by reacting diketene or an alkyldiketene with an appropriately substituted heterocyclic ω-alkanol or substituted heterocyclic mercapto ω-alkanol in benzene. The related sulfoxy and sulfonyl derivatives of formula VI may be prepared by oxidizing the relative mercapto derivative with m-chloroperbenzoic acid in CH₂Cl₂ followed, if required, by further oxidation with potassium permanganate in acetic acid. All the products in this invention are characterized by their respective nmr, ir spectra and their elemental analysis. The relative purity has been determined by HPLC. Calcium antagonistic activity of the compounds was determined at the concentration required to produce 50% inhibition of the muscarinic receptor-mediated Ca²⁺-dependent contraction of guinea pig ileal longitudinal smooth muscle assay.
Calcium channel antagonist activity was determined as the concentration required to produce 50% inhibition of the muscarinic receptor-mediated Ca⁺²-dependent contraction of guinea pig ileal longitudinal smooth muscle assay (C. Triggle, V. Swamy and D. Triggle, Can. J. Physiol. Pharmacol., 1979, 57, 804). Male albino guinea pigs (body weight 300 - 450g) were sacrificed by decapitation. The intestine was removed above the ileocaecal junction. Longitudinal smooth muscle segments of 2cm length were mounted under a resting tension of 300 - 400 mg. The segments were maintained at 37°C in a 10mL jacketed organ bath containing oxygenated (100% O₂) physiological saline solution of the following composition (mM): NaCl: 137; CaCl₂: 2.6; KCl: 5.9; MgCl₂: 1.2; glucose: 11.9; buffered by Hepes-NaOH to pH 7.4. The muscles were equilibrated for 1h with a solution change every 15 min. Two successive control contractions were elicited at 15 min. intervals with 5x10⁻⁷M carbachol. The isometric contractions were recorded with a force displacement transducer (FT 03C) on a GRASS* physiograph. The means of the […] contractile responses was taken as the 100% value for the tonic (slow) component of the response. The muscle was washed with Hepes saline solution and was allowed to re-equilibrate. The calcium antagonist (test compound) was added ten min before the dose-response for carbachol was determined. The drug-induced inhibition of contraction was expressed as percent of control. The ID₅₀ values were graphically determined from the concentration-response curves, in triplicate.

[2] = test system: heart muscle; experiment: Ionotropic effect and heart rate on heart muscle; assay type: cell-based; details: for heart contractile force / heart rate: at the concentrations which normally exhibit the Ca-blocking effect in smooth muscles; for positive ionotropic effect on the heart muscle: same concentration as smooth muscle relaxant (IC50 concentration; 3.25 x 10⁻⁹M for Compound 11)
[3] = test system: angiotensin; experiment: In-vitro angiotensin inhibitory activity; assay type: biochemical; details: for angiotensin inhibitory activity: general pharmacological screening, result in words
[4] = General pharmacological screening: anti-inflammatory activity; details: result in words
[5] = test system: heart muscle; details: in the concentration of its smooth muscle calcium channel blocking effectiveness; cited from earlier work
[6] = test system: LTD₄; experiment: General pharmacological screening: LTD4 antagonistic activity; details: result in words
[7] = General pharmacological screening: anti-ulcer stressic activity; details: result in words
[8] = test system: SHR Rat; experiment: Blood pressure and heart rate in SHR Rat; assay type: in vivo; details: 0.2mg/Kg
[9] = Cavia porcellus, read-out: IC₅₀ as a calcium antagonist in smooth muscle
[10] = Cavia porcellus, exponent (x 10⁻⁹), carbachol 5x10⁻⁷M, tonic component, triplicate, read-out: calcium channel antagonist act., inhib. act. on contractile Response to CD ID₅₀

## COC(=O)C1=C(C)NC(C)=C(C(=O)OCCCCCCCc2cc(C)no2)C1c1cccc(C(F)(F)F)c1 (centres unmarked) [Compound 3, 3-[7-(3-mehylisoxazol-5-yl)heptyloxycarbonyl]-5-methoxycarbonyl-2,6-dimethyl-4-(3-trifluoromethylphenyl)-1,4-dihydropyridine]
[1]; exponent (x 10⁻⁹), carbachol 5x10⁻⁷M, tonic component, triplicate, read-out: calcium channel antagonist act., inhib. act. on contractile Response to CD ID₅₀
  IC50: 5.13 nM

## COC(=O)C1=C(C)NC(C)=C(C(=O)OCCCCCCCc2nc(C)cs2)C1c1cccc([N+](=O)[O-])c1 (centres unmarked)
[1]; [9]
  IC50: 3.25 ± 0.33 nM
[1]
  relative potency compared with Nifedipine: 4.3
[2]
  heart contractile force: increase the heart contractile force
  heart rate: without changing the heart rate

## COC(=O)C1=C(C)NC(C)=C(C(=O)OCCCCCCCc2nc(C)cs2)C1c1cccc(Cl)c1 (centres unmarked) [Compound 15, 3-[7-(4-methylthiazol-2-yl)heptyloxycarbonyl]-5-methoxycarbonyl-2,6-dimethyl-4-(3-chlorophenyl)-1,4-dihydropyridine]
[3]; Concentration 0.1 µg/ml
  Percent Inhibition: 64%
[1]; [10]
  IC50: 6.25 nM

## COC(=O)C1=C(C)NC(C)=C(C(=O)OCCCCCCn2nc(C)cc2C)C1c1cccc([N+](=O)[O-])c1 (centres unmarked)
[4]
  anti-inflammatory activity: very strong

## COC(=O)C1=C(C)NC(C)=C(C(=O)OCCCCCCS(=O)(=O)c2nc(C)cs2)C1c1cccc([N+](=O)[O-])c1 (centres unmarked) [listing 1 of 2 here]
[1]; [9]
  IC50: 5.57 nM

## COC(=O)C1=C(C)NC(C)=C(C(=O)OCCCCCCCc2cc(C)no2)C1c1cccc([N+](=O)[O-])c1 (centres unmarked) [Compound 1, 3-[7-(3-methylisoxazol-5-yl)heptyloxycarbonyl]-5-methoxycarbonyl-2,6-dimethyl-4-(3-nitrophenyl)-1,4-dihydropyridine]
[3]; Concentration 0.01 µg/ml
  Percent Inhibition: 93%
[3]; concentration of 0.0025 µg
  Percent Inhibition: 60%
[1]; [10]
  IC50: 3.84 nM

## CCOC(=O)C1=C(C)NC(C)=C(C(=O)OC)C1c1cccc(Cl)c1Cl (centres unmarked) [Felodipine, 3-ethoxycarbonyl-5-methoxycarbonyl-4-(2,3-dichlorophenyl)-2,6-dimethyl-1,4-dihydropyridine]
[5]
  effect on the heart: no effect on the heart

## COC(=O)C1=C(C)NC(C)=C(C(=O)OCCCCCCCc2nc(C)cs2)C1c1cccc(Cl)c1Cl (centres unmarked) [Compound 17, 3-[7-(4-methylthiazol-2-yl)heptyloxycarbonyl]-5-methoxycarbonyl-2,6-dimethyl-4-(2,3-dichlorophenyl)-1,4-dihydropyridine]
[1]; Cavia porcellus, exponent printed in neighbouring spread cell (x 10⁻⁸), carbachol 5x10⁻⁷M, tonic component, triplicate, read-out: calcium channel antagonist act., inhib. act. on contractile Response to CD ID₅₀
  IC50: 48.1 nM

## COC(=O)C1=C(C)NC(C)=C(C(=O)OCCCCCCSc2nc(C)cs2)C1c1cccc([N+](=O)[O-])c1 (centres unmarked) [Compound 18, 3-[6-(4-methylthiazol-2-yl)thiohexyloxycarbonyl]-5-methoxycarbonyl-2,6-dimethyl-4-(3-nitrophenyl)-1,4-dihydropyridine]
[1]; [10]
  IC50: 5.48 nM

## COC(=O)C1=C(C)NC(C)=C(C(=O)OCCCCCCS(=O)(=O)c2nc(C)cs2)C1c1cccc([N+](=O)[O-])c1 (centres unmarked) [3-[6-(4-methylthiazol-2-yl)sulfonylhexyloxycarbonyl]-5-metho]
[1]
  relative potency compared with Nifedipine: 2.5
[2]
  positive ionotropic effect on the heart muscle: about 22%

## COC(=O)C1=C(C)NC(C)=C(C(=O)OCCCCCCS(=O)(=O)c2nc(C)cs2)C1c1cccc([N+](=O)[O-])c1 (centres unmarked) [Compound 19, 3-[6-(4-methylthiazol-2-yl)sulfonylhexyloxycarbonyl]-5-methoxycarbonyl-2,6-dimethyl-4-(3-nitrophenyl)-1,4-dihydropyridine]
[1]; [10]
  IC50: 5.81 nM
[2]
  positive ionotropic effect on the heart muscle: 25%

## COC(=O)C1=C(C)NC(C)=C(C(=O)OCCCCCCCc2nc(C)cs2)C1c1cccc(Cl)c1 (centres unmarked)
[3]
  angiotensin inhibitory activity: very strong
[6]
  LTD₄ antagonistic activity: very strong
[7]
  anti-ulcer stressic activity: very strong

## COC(=O)C1=C(C)NC(C)=C(C(=O)OCCCCCCCc2nc(C)cs2)C1c1cccc([N+](=O)[O-])c1 (centres unmarked) [Compound 11, 3-[7-(4-methylthiazol-2-yl)heptyloxycarbonyl]-5-methoxycarbonyl-2,6-dimethyl-4-(3-nitrophenyl)-1,4-dihydropyridine]
[8]
  drop in blood pressure: 19%
  heart rate: without changing the heart rate
  period of drop in blood pressure: 9 h
[1]; [10]
  IC50: 3.25 nM
[2]
  positive ionotropic effect on the heart muscle: about 12%

## COC(=O)C1=C(C)NC(C)=C(C(=O)OCCCCCCn2nc(C)cc2C)C1c1cccc([N+](=O)[O-])c1 (centres unmarked) [Compound 5, 3-[6-(3,5-dimethylpyrazol-1-yl)hexyloxycarbonyl]-5-methoxycarbonyl-2,6-dimethyl-4-(3-nitrophenyl)-1,4-dihydropyridine]
[3]; Concentration 0.01 µg/ml
  Percent Inhibition: 95%
[3]; concentration of 0.001 µg
  Percent Inhibition: 58%
[1]; [10]
  IC50: 6.24 nM

## COC(=O)C1=C(C)NC(C)=C(C(=O)OCCCCCCCc2nc(C)cs2)C1c1cccc(C(F)(F)F)c1 (centres unmarked) [Compound 13, 3-[7-(4-methylthiazol-2-yl)heptyloxycarbonyl]-5-methoxycarbonyl-2,6-dimethyl-4-(3-trifluoromethylphenyl)-1,4-dihydropyridine]
[3]; Concentration 0.1 µg/ml
  Percent Inhibition: 80%

## COC(=O)C1=C(C)NC(C)=C(C(=O)OCCCCCCCc2nc(C)cs2)C1c1cccc(C(F)(F)F)c1 (centres unmarked)
[4]
  anti-inflammatory activity: very strong

## COC(=O)C1=C(C)NC(C)=C(C(=O)OCCCCCCS(=O)(=O)c2nc(C)cs2)C1c1cccc([N+](=O)[O-])c1 (centres unmarked) [listing 2 of 2 here]
[2]
  heart contractile force: increase the heart contractile force
  heart rate: without changing the heart rate

## COC(=O)C1=C(C)NC(C)=C(C(=O)OCCCCCCCc2cc(C)no2)C1c1cccc([N+](=O)[O-])c1 (centres unmarked)
[3]
  angiotensin inhibitory activity: very strong
[6]
  LTD₄ antagonistic activity: very strong
[7]
  anti-ulcer stressic activity: very strong

## C[C@H](CS)C(=O)N1CCC[C@H]1C(=O)O [Captopril, reference compound]
[3]; Concentration 0.05 µg/ml
  Percent Inhibition: 69%
